Source: patent publication US5580956A, “Phospholipase C-inhibiting peptides” (priority 1992, dated 1996)
In brackets after ≈: the same amount, converted by molar mass. Peptide text beside a SMILES is read from it. * marks the point of attachment. Cyclopentanecarbonyl = O=C(C1CCCC1)*; Hexanoyl = CCCCCC(=O)*

How the values were obtained:
[1] = target: T1, PLC-γ1 (Bos taurus, UniProt P08487); assay: PLC-inhibiting activity (release of [3H]inositol phosphate from [3H]PIP2); assay type: biochemical, bovine; settings: PI-PLC-γ1, 37° C., 10 minutes, read-out: Inhibition rate (%); for inhibition at 130 µM (stock): Concentration 130 μM (aqueous solution of test peptide)
T1 construct: A sample (PLC-γ1) was prepared from bovine thymus according to the method of Y. Homma et al; from tissue; host or cells: bovine thymus
T1 sequence (P08487 1-1291): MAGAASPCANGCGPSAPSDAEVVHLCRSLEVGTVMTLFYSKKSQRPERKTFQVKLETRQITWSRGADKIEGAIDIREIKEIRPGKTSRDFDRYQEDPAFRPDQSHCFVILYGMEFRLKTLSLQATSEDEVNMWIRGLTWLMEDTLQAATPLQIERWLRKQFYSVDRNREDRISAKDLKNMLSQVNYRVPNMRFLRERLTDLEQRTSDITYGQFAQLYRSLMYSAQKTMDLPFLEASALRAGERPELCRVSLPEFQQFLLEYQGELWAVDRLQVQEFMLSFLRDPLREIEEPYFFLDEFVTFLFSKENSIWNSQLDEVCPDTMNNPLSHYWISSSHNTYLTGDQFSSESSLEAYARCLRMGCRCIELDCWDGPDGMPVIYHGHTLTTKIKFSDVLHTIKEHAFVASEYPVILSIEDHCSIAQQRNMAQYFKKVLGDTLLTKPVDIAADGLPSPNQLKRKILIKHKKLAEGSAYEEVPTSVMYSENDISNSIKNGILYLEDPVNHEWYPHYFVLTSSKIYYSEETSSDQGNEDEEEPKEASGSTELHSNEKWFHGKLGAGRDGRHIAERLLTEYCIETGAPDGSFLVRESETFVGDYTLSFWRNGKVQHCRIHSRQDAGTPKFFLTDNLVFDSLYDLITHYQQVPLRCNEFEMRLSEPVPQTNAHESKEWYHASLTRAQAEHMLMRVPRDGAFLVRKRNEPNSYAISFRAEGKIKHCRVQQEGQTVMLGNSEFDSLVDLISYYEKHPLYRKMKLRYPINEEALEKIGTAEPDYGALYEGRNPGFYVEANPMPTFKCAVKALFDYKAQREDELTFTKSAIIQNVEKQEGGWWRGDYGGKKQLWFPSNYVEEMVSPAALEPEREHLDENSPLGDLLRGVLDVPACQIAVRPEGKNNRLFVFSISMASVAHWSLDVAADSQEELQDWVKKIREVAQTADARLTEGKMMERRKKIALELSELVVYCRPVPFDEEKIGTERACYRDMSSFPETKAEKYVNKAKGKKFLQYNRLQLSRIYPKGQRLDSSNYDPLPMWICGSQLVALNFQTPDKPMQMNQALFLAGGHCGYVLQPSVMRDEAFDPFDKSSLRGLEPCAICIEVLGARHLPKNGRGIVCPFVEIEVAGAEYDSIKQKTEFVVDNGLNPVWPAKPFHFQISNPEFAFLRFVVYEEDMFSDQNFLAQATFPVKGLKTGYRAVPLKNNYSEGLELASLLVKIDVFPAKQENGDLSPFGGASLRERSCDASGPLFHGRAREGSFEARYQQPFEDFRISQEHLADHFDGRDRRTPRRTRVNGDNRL
Method: A sample (PLC-γ1) was prepared from bovine thymus according to the method of Y. Homma et al. described in Biochemical Journal [(Biochem. J.), 269, 13 (1990)]. A solution having the composition listed in Table 1 below was prepared in advance on the ice and the reaction was begun with heating to 37° C. After incubation for 10 minutes, 2 ml of a solution mixture of chloroform/methanol (2:[…]) was added thereto to stop the reaction. The resulting inositol phosphate was extracted with 0.5 ml of 1N hydrochloric acid. Two-phase distribution was carried out by centrifugation (2000×g, 3 minutes), and the amount of ^3 H contained in 0.7 ml of the supernatant was measured with scintillation counter. […] The obtained value of specific radioactivity was defined as "A", the value of specific radioactivity obtained when an equivalent amount of water was added instead of the aqueous solution of the test peptide was defined as "B", the value of specific radioactivity obtained when an equivalent amount of water was added instead of the sample and the aqueous solution of the test peptide was defined as "C", and the inhibition rate (X) was determined according to the following equation. X(%)=[…]

[2] = tested on: Pseudomonas aeruginosa Bin H No. 1; assay type: cell-based; settings: Bin H No. 1, pH 7
Method: (§1) The antibacterial activity was determined by the agar dilution method using a culture medium (pH 7.0) containing 3 g/l bactotrypton (product of Difco Co.), 1 g/l meat extract, 1 g/l glucose and 16 g/l agar.

[3] = tested on: Bacillus subtilis No. 10107; assay type: cell-based; settings: No. 10107, pH 7
Method: as §1

[4] = tested on: Proteus vulgaris ATCC6897; assay type: cell-based; settings: ATCC6897, pH 7
Method: as §1

[5] = tested on: Enterococcus faecium ATCC10541; assay type: cell-based; settings: ATCC10541, pH 7
Method: as §1

[6] = tested on: Salmonella typhi ATCC9902; assay type: cell-based; settings: agar dilution, medium pH 7.0
Method: as §1

[7] = tested on: Shigella sonnei ATCC9290; assay: Antibacterial activity, agar dilution method; assay type: cell-based; settings: medium pH 7.0
Method: as §1

[8] = tested on: KMS-4 cells; assay: Cell proliferation-inhibiting activity (BrdU incorporation, Amersham Cell Proliferation Detection Kit); assay type: cell-based; settings: Concentration 31 μM, 17 hours with peptide, BrdU-stained cells
Method: The following procedure was carried out with an Amersham Cell Proliferation Detection Kit. First, cells [KMS-4; M. Nanba et al., International Journal of Cancer, 32, 697 (1983)] were suspended in a DMEM culture medium (product of Nissui Seiyaku) containing 10% fetal calf serum to a concentration of 1-2×10^4 cells/ml, and 1 ml of the above-mentioned cell suspension was put into each well of a 24-well plate (product of Corning Co.). The cells were cultured for 2 days in a CO2 incubator (37° C., 5% CO2). Next, the culture medium was exchanged with a DMEM medium containing 10% fetal calf serum, and then the test peptide was added thereto and culturing was carried out for 17 hours. The culture medium was again exchanged with a serum-free DMEM medium, 0.5 ml of a solution of the reagents labelled 5-bromo-2'-deoxyuridine (BrdU) and 5-fluoro-2'-deoxyuridine (FdU) [10:1] diluted 1000-fold with the same medium was added to each well, and cultured for 2 hours. The culture medium was removed, and the cells were immobilized with an acetic acid/ethanol solution. The immobilized cells were stained according to the method for the Amersham Cell Proliferation Kit, and then further stained with a 1% Giemsa solution (product of Merck Co.). The number of cells incorporating BrdU and the total cell count within 1 field of vision of the microscope (approximately 200 cells) were determined, and the proportion (%) of stained cells per field of vision was calculated. Furthermore, the same procedure was repeated 10 times, and the average value thereof was defined as the cell proliferation activity (%). The cell proliferation-inhibiting activity was calculated in the following manner. The proliferation activity without addition of peptide was defined as "A", the proliferation activity with addition of the test peptide was defined as "B", and the cell proliferation inhibition rate (X) was determined according to the following equation. X (%)=[…]

| Compound | inhibition at 130 µM (stock) [1] | MIC [2] | MIC [3] | MIC [4] | MIC [5] | MIC [6] | MIC [7] | Cell proliferation inhibition rate (%) [8] | inhibition at 160 µM (stock) ([1]; Concentration 160 μM (aqueous solution of test peptide)) |
| --- | --- | --- | --- | --- | --- | --- | --- | --- | --- |
| CCCCCC(=O)N[C@@H](CC(C)C)C(=O)N[C@@H](Cc1ccc(O)cc1)C(=O)N[C@@H](CCCNC(=N)N)C(=O)N[C@@H](CCCCN)C(=O)N[C@@H](CCSC)C(=O)N[C@@H](CCCNC(=N)N)C(=O)N[C@@H](CC(C)C)C(=O)N[C@@H](CCCNC(=N)N)C(=O)N[C@@H](Cc1ccc(O)cc1)C(=O)N1CCC[C@H]1C(=O)N[C@H](C(N)=O)C(C)C [(I-27), CH3 (CH2)4 CO-Leu-Tyr-Arg-Lys-Met-Arg-Leu-Arg-Tyr-Pro-Val-NH2] (Hexanoyl-LYRKMRLRYPV-NH2) | 35% | 42 µg/mL (≈ 26.4 µM) | 83 µg/mL (≈ 52.1 µM) | 83 µg/mL (≈ 52.1 µM) | 83 µg/mL (≈ 52.1 µM) | 83 µg/mL (≈ 52.1 µM) | 83 µg/mL (≈ 52.1 µM) | 28% | – |
| CSCC[C@H](NC(=O)[C@H](CCCCN)NC(=O)[C@H](CCCNC(=N)N)NC(=O)[C@H](Cc1ccc(O)cc1)NC(=O)[C@H](CC(C)C)NC(=O)C1CCCC1)C(=O)N[C@@H](CCCNC(=N)N)C(=O)N[C@@H](CC(C)C)C(=O)N[C@@H](CCCNC(=N)N)C(=O)N[C@@H](Cc1ccc(O)cc1)C(=O)N1CCC[C@H]1C(=O)N[C@H](C(N)=O)C(C)C [(I-26), C5 H9 CO-Leu-Tyr-Arg-Lys-Met-Arg-Leu-Arg-Tyr-pro-Val-NH2] (Cyclopentanecarbonyl-LYRKMRLRYPV-NH2) | 23% | 42 µg/mL (≈ 26.4 µM) | – | 83 µg/mL (≈ 52.2 µM) | – | – | – | 71% | – |
| Ac-YRKMRLRY-NH2 [Compound (I-10), CH3 CO-Tyr-Arg-Lys-Met -Arg-Leu-Arg-Tyr-NH2] | – | 83 µg/mL | 83 µg/mL | 83 µg/mL | 83 µg/mL | – | – | – | 26% |
